This is an account of results in ChEMBL document CHEMBL1255216, “Exploration of the amine terminus in a novel series of 1,2,4-triazolo-3-yl-azabicyclo[3.1.0]hexanes as selective dopamine D3 receptor antagonists” (J Med Chem, 2010).

Some results are limits rather than exact numbers.

Among the targets are Cytochrome P450 2D6 (Homo sapiens, UniProt P10635); Cytochrome P450 2C9 (Homo sapiens, UniProt P11712); Cytochrome P450 3A4 (Homo sapiens, UniProt P08684); Cytochrome P450 2C19 (Homo sapiens, UniProt P33261).
Series [1] deals with Voltage-gated inwardly rectifying potassium channel KCNH2 (Homo sapiens, UniProt Q12809).
Sequence of Voltage-gated inwardly rectifying potassium channel KCNH2 (Q12809 whole entry): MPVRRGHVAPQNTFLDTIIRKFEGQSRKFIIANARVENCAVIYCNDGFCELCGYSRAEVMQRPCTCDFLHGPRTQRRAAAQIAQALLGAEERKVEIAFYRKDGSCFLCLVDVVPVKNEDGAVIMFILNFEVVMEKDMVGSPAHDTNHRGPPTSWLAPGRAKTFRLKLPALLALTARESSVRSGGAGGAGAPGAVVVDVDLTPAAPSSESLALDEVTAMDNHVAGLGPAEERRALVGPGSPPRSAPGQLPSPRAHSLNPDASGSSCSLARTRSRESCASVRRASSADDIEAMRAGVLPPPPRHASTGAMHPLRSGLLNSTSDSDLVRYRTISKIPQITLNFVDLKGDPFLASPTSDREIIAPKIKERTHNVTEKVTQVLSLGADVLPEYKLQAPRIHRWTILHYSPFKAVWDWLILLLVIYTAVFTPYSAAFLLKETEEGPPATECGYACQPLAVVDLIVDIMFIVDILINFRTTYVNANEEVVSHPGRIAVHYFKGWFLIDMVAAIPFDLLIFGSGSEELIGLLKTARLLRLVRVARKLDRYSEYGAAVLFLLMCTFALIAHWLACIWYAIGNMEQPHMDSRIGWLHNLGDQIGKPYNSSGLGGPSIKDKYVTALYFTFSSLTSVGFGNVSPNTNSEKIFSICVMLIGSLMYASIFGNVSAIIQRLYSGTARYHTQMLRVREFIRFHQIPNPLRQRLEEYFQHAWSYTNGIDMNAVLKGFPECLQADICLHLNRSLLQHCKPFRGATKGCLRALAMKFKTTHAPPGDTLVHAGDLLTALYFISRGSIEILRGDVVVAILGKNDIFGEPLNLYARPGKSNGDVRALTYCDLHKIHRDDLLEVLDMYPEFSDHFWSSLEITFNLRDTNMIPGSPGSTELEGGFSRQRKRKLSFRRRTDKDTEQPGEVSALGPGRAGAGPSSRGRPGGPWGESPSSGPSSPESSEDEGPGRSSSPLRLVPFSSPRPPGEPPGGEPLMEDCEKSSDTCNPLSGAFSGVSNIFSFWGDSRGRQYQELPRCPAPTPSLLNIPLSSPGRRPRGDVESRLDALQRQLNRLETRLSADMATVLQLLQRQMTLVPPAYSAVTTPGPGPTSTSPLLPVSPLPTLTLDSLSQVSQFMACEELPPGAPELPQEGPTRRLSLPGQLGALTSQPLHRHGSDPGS
A further series addresses D(2) dopamine receptor (Homo sapiens, UniProt P14416). Nature of the series: Antagonist activity at human dopamine D2L receptor expressed in CHO cells assessed as inhibition of quinelorane-induced [35S]GTPgammaS binding. The format is functional, cell-based.
Another series deals with D(3) dopamine receptor (Homo sapiens, UniProt P35462). Nature of the series: Antagonist activity at human dopamine D3 expressed in CHO cells assessed as inhibition of quinelorane-induced [35S]GTPgammaS binding. The format is functional, cell-based.
Sequence of D(3) dopamine receptor (P35462 whole entry): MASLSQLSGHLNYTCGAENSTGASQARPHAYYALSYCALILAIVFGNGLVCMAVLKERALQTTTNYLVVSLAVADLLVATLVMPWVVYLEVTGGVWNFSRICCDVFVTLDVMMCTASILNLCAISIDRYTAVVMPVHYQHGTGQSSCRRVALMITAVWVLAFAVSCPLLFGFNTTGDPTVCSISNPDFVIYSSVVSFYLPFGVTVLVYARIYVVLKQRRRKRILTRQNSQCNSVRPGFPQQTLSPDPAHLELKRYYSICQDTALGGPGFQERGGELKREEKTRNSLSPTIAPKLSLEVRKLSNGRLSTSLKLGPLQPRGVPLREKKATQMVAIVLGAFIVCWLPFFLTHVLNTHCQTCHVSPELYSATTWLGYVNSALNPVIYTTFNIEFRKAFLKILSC
The test system of series [2] is Liver microsomes. The note with it: rat, 0.5 h, 0.5 µM.
For another series, the target named is T1, Cytochrome P450 1A2 (Homo sapiens, UniProt P05177).
T1 sequence (P05177 whole entry): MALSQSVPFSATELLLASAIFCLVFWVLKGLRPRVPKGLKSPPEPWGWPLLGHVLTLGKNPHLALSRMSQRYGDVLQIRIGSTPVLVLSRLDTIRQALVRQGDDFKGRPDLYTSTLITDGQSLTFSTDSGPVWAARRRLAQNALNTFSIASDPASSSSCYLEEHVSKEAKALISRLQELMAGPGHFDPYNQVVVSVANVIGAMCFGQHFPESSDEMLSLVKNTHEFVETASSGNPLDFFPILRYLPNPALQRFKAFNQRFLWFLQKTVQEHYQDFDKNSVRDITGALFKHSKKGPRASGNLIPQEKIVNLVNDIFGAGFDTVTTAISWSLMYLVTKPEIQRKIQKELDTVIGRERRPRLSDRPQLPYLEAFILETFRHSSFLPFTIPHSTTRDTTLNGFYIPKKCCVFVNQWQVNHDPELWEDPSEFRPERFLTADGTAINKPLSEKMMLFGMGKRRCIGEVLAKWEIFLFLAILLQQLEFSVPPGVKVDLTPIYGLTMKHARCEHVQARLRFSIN

The subject of series [3] is Liver microsomes. Conditions: human, 0.5 h, 0.5 µM.

Sequence of Cytochrome P450 3A4 (P08684 whole entry): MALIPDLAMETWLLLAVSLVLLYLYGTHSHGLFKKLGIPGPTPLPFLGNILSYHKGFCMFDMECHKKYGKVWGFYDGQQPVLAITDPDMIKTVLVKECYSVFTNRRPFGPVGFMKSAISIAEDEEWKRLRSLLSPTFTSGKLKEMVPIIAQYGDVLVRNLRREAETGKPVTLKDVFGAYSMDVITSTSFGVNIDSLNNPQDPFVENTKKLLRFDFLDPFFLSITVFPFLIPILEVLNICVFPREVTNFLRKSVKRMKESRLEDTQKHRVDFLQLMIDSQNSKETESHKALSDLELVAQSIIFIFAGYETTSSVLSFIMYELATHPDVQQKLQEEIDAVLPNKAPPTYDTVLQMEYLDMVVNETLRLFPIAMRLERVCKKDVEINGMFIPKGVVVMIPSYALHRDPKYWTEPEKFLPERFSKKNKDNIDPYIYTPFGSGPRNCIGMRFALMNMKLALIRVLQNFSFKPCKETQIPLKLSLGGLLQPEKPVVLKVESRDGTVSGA
Sequence of D(2) dopamine receptor (P14416 whole entry): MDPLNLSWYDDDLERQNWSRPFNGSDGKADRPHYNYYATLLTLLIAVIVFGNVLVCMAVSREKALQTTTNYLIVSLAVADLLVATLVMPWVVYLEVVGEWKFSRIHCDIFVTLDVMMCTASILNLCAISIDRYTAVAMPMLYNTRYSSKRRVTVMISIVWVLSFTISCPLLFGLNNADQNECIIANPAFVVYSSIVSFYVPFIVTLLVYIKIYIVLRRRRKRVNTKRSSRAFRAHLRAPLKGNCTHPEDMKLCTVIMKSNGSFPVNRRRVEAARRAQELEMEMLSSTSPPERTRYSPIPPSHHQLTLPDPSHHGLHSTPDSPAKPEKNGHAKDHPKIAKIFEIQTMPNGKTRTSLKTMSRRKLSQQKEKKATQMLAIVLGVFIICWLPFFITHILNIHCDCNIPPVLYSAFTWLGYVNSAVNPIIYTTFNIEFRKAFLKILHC
Sequence of Cytochrome P450 2D6 (P10635 whole entry): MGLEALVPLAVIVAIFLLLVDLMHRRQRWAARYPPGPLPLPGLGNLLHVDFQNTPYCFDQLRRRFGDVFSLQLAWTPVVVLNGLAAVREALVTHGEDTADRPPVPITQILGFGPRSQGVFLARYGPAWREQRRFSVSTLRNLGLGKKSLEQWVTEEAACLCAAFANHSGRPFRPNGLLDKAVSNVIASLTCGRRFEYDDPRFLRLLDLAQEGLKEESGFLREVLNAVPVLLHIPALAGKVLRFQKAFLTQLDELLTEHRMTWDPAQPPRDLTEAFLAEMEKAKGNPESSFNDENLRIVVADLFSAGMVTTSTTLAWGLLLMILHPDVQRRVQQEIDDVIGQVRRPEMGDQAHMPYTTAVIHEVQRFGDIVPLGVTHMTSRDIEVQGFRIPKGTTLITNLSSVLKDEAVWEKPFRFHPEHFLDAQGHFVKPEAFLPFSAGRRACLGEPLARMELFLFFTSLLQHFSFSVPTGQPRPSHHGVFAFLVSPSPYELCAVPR
Sequence of Cytochrome P450 2C19 (P33261 whole entry): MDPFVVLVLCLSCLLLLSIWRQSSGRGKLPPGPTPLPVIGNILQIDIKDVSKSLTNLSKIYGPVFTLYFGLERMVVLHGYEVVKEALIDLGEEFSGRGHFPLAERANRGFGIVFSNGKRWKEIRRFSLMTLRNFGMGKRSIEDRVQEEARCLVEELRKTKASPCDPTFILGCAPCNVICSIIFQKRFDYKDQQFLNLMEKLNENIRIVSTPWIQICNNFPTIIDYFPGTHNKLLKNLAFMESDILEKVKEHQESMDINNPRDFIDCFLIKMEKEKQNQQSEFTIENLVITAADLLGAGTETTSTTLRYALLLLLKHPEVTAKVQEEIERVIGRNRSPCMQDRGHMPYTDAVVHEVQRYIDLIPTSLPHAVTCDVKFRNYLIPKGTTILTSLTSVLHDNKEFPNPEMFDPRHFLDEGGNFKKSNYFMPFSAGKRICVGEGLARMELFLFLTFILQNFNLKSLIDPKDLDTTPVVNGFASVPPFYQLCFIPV
Sequence of Cytochrome P450 2C9 (P11712 whole entry): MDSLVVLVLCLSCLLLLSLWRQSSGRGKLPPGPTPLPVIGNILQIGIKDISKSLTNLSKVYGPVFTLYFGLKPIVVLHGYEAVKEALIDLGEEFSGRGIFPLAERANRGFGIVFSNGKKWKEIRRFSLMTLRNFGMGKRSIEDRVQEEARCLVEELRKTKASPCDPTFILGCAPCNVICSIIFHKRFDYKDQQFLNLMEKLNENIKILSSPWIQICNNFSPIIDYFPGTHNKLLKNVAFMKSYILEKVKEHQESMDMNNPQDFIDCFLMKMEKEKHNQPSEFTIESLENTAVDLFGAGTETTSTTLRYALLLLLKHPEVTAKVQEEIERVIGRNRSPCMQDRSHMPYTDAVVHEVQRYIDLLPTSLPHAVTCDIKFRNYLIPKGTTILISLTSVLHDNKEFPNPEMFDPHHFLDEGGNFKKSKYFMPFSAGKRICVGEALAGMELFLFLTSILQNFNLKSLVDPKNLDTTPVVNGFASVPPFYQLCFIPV
Description for Cytochrome P450 1A2: Inhibition of human CYP1A2
Description for Cytochrome P450 2C19: Inhibition of human CYP2C19
Description for Cytochrome P450 2C9: Inhibition of human CYP2C9
Description for Cytochrome P450 2D6: Inhibition of human CYP2D6
Description for Cytochrome P450 3A4: Inhibition of human CYP3A4

Regarding `Cc1nc(C)c(-c2nnc(SCCCN3CCC4(CCc5ccc(F)cc54)C3)n2C)s1` (centres undefined), the IC50 in series [1] was 6310 nM. The Ki was 398 nM at D(2) dopamine receptor and 50.1 nM at D(3) dopamine receptor.
On to `Cc1ncoc1-c1nnc(SCCCN2[C@@H]3CC[C@H]2C[C@@H](c2ccc(C(C)(C)C)cc2)C3)n1C`, for which the IC50 at Cytochrome P450 2D6 is over 5 µM; on Cytochrome P450 1A2, over 5 µM; against Cytochrome P450 2C9, over 5 µM; against Cytochrome P450 3A4 it was over 5000 nM; against Cytochrome P450 2C19 it was over 5 µM. For the same molecule, the Ki was 398 nM at D(2) dopamine receptor and 0.631 nM at D(3) dopamine receptor. The results for the CL with Liver microsomes [2] and in the series on Liver microsomes [3] were 7.9 mL/min/g and 0.9 mL/min/g, respectively.
Take `Cc1ncoc1-c1nnc(SCCCNC2CC3CC3(c3ccccc3)C2)n1C` (centres undefined): the inhibition constant Ki is 251 nM on D(2) dopamine receptor and 50.1 nM on D(3) dopamine receptor.
On to `Cc1ncoc1-c1nnc(SCCCN2[C@@H]3CC[C@H]2C[C@@H](c2ccc(C(F)(F)F)cc2)C3)n1C`, for which the results for the Ki at D(2) dopamine receptor and on D(3) dopamine receptor were 398 nM and 10 nM, respectively.
Regarding `Cc1ncoc1-c1nnc(SCCCN2CCC3CC3(c3ccccc3)C2)n1C` (centres undefined), the Ki was 398 nM on D(2) dopamine receptor and 126 nM at D(3) dopamine receptor.
The like results for `Cc1ncoc1-c1nnc(SCCCN2[C@@H]3CC[C@H]2C[C@@H](c2ccc(C(F)(F)F)cc2F)C3)n1C` were, in that order, over 3160 nM and 6.31 nM.
For the molecule `Cc1ncoc1-c1nnc(SCCCN2CCC3(c4ccccc4)CC3C2)n1C` (centres undefined), on D(3) dopamine receptor, the Ki is 158 nM.
As to `Cc1ncoc1-c1nnc(SCCCN2CCC3CC3(c3ccc(C(F)(F)F)cc3)C2)n1C` (centres undefined), the IC50 in series [1] was 2000 nM. The Ki was 501 nM at D(2) dopamine receptor and 7.94 nM on D(3) dopamine receptor.
Take `Cc1ncoc1-c1nnc(SCCCN2CCC3(c4ccc(C(F)(F)F)cc4)CC3C2)n1C` (centres undefined): the Ki at D(3) dopamine receptor is 39.8 nM.
In the case of `Cc1ncoc1-c1nnc(SCCCN2CCC3CC3(c3cccc(C(F)(F)F)c3)C2)n1C` (centres undefined), the Ki on D(3) dopamine receptor was 12.6 nM.
Take `Cc1ncoc1-c1nnc(SCCCN2CCC3(c4cccc(C(F)(F)F)c4)CC3C2)n1C` (centres undefined): the Ki was 2510 nM at D(2) dopamine receptor and 6.31 nM on D(3) dopamine receptor.
With `Cc1ncoc1-c1nnc(SCCCN2CCC3CC3(c3ccc(C(F)(F)F)cc3)CC2)n1C` (centres undefined), the Ki at D(2) dopamine receptor is 100 nM; at D(3) dopamine receptor, 3.98 nM.
Turning to `Cc1nc(C)c(-c2nnc(SCCCN3CCC4CC4(c4ccc(C(F)(F)F)cc4)CC3)n2C)o1` (centres undefined), the inhibition constant (Ki) at D(3) dopamine receptor is 10 nM.
As to `Cc1nc(C)c(-c2nnc(SCCCN3CCC4CC4(c4ccc(C(F)(F)F)cc4)CC3)n2C)s1` (centres undefined), the IC50 in series [1] was 631 nM. The Ki on D(2) dopamine receptor is 200 nM; at D(3) dopamine receptor, 3.98 nM.
With `Cn1c(SCCCN2CCC3CC3(c3ccc(C(F)(F)F)cc3)CC2)nnc1-c1ccnnc1` (centres undefined), the Ki is 398 nM at D(2) dopamine receptor and 3.98 nM at D(3) dopamine receptor.
Molecule `Cc1ncoc1-c1nnc(SCCCN[C@@H]2CC[C@]3(c4ccc(C(F)(F)F)cc4F)CC23)n1C` (some centres undefined) gave a half-inhibitory concentration (IC50) in series [1] of 631 nM. Besides, the inhibition constant (Ki) at D(2) dopamine receptor is 200 nM; at D(3) dopamine receptor, 3.16 nM.
Consider `Cc1ncoc1-c1nnc(SCCCN[C@@H]2CC3C[C@]3(c3ccc(C(F)(F)F)cc3F)C2)n1C` (some centres undefined), for which the figures for the Ki at D(2) dopamine receptor and at D(3) dopamine receptor were over 3160 nM and 31.6 nM, respectively.
`Cc1ncoc1-c1nnc(SCCCN2CCC3(CCCc4cc(Br)ccc43)C2)n1C` (centres undefined): the Ki at D(3) dopamine receptor was 7.94 nM.
On to `Cc1ncoc1-c1nnc(SCCCN2CCC3(CCCc4ccc(Br)cc43)C2)n1C` (centres undefined), for which the Ki on D(2) dopamine receptor is 316 nM; at D(3) dopamine receptor it was 15.8 nM.
The like results for `COc1ccc2c(c1)CCCC21CCN(CCCSc2nnc(-c3ocnc3C)n2C)C1` (centres undefined) were, in that order, 1000 nM and 100 nM.
The like results for `COc1cccc2c1CCCC21CCN(CCCSc2nnc(-c3ocnc3C)n2C)C1` (centres undefined) were, in that order, 398 nM and 79.4 nM.
Take `COc1ccc2c(c1)C1(CCC2)CCN(CCCSc2nnc(-c3ocnc3C)n2C)C1` (centres undefined): on D(3) dopamine receptor, the Ki was 31.6 nM.
As to `Cc1ncoc1-c1nnc(SCCCN2CCC3(CCOc4ccccc43)C2)n1C` (centres undefined), the Ki at D(2) dopamine receptor is over 3160 nM; at D(3) dopamine receptor, 100 nM.
As to `Cc1ncoc1-c1nnc(SCCCN2CCC3(CCc4cc(Br)ccc43)C2)n1C` (centres undefined), the values for the Ki at D(2) dopamine receptor and at D(3) dopamine receptor were 126 nM and 5.01 nM, respectively.
For `Cc1ncoc1-c1nnc(SCCCN2CCC3(CCc4c(Br)cccc43)C2)n1C` (centres undefined), the Ki is 251 nM on D(2) dopamine receptor and 7.94 nM at D(3) dopamine receptor.
For `Cc1ncoc1-c1nnc(SCCCN2CCC3(CCc4ccc(Br)cc43)C2)n1C` (centres undefined), the Ki on D(2) dopamine receptor was 39.8 nM; on D(3) dopamine receptor, 2.51 nM.
On to `Cc1nc(C)c(-c2nnc(SCCCN3CCC4(CCc5cc(Cl)ccc54)C3)n2C)s1` (centres undefined), for which 2510 nM corresponded to half-maximal inhibition in [1] (IC50). Besides, the values for the Ki on D(2) dopamine receptor and at D(3) dopamine receptor were 398 nM and 31.6 nM, respectively.
`Cc1ncoc1-c1nnc(SCCCN2CCC3(CCc4cc(F)ccc43)C2)n1C` (centres undefined): the results for the Ki at D(2) dopamine receptor and on D(3) dopamine receptor were 100 nM and 158 nM, respectively.
Regarding `Cc1ncoc1-c1nnc(SCCCNC2CC[C@]3(c4ccc(C(F)(F)F)cc4)CC23)n1C` (single isomer, unassigned), in series [1], the IC50 is 2510 nM. In addition, the Ki at D(2) dopamine receptor was over 3160 nM; on D(3) dopamine receptor, 251 nM.
As to `Cc1ncoc1-c1nnc(SCCCN[C@@H]2CC[C@]3(c4ccc(C(F)(F)F)cc4)CC23)n1C` (stereo in doubt; 22), the half-inhibitory concentration (IC50) in [1] was 251 nM. Moreover, the Ki was over 3160 nM at D(2) dopamine receptor and 126 nM at D(3) dopamine receptor.
For the molecule `Cc1ncoc1-c1nnc(SCCCN[C@@H]2CC[C@]3(c4ccc(C(F)(F)F)cc4)CC23)n1C` (stereo in doubt; 24), the IC50 in series [1] was 631 nM; against Cytochrome P450 2D6, over 4 µM; on Cytochrome P450 1A2 it was over 4 µM; against Cytochrome P450 2C9 it was over 4 µM; at Cytochrome P450 3A4, over 4000 nM; at Cytochrome P450 2C19 it was over 4 µM. Besides, the inhibition constant (Ki) was 501 nM at D(2) dopamine receptor and 3.98 nM at D(3) dopamine receptor. The CL with Liver microsomes [2] and in the series on Liver microsomes [3] was under 0.5 mL/min/g each time.
As for `CCOc1ccc2c(c1)Oc1cc(OCC)ccc1C21OC(=O)c2ccccc21` [DIETHOXYFLOURESCEIN], the IC50 at Cytochrome P450 3A4 came to 1000 nM.

The IC50 is the midpoint of a concentration-inhibition curve. As a reminder, the Ki is the equilibrium dissociation constant of an inhibitor or competing ligand from its target.
